One assay concerns the target T1, plasma kallikrein (Homo sapiens, UniProt P03952).
T1 construct: PFR-AMC substrate
Put plainly: Neat Human Plasma Assay (Fluorogenic Peptide), contact pathway-activated (FXIIa) plasma. In kind it is biochemical. The following applies: human citrated plasma 78% final; 10 nM human FXIIa; PFR-AMC substrate; 5 minutes; room temperature. Here is the method: To analyze inhibition of plasma kallikrein in an ex vivo setting, the potency of compounds was measure in contact pathway-activated plasma assays. In a fluorogenic peptide substrate assay, test compounds dissolved in DMSO were added to sodium citrate collected human or rat plasma in a 96-well microplate. Alternatively, citrated plasma was collected from rats administered the compounds orally or by IV. 10 nM of human FXIIa (Enzyme Research Laboratories) diluted in PKa buffer (20 mM Tris-HCl, pH 7.5, 150 mM NaCl, 1 mM EDTA, 0.1% PEG-8000, and 0.1% Triton X-100) was added to the plasma, followed by the […] of the profluorescent, synthetic plasma kallikrein substrate PFR-AMC (also diluted in PKa buffer). Final plasma concentration in the reaction was 78%. Fluorescence was immediately monitored by excitation/emission wavelengths of 360 nm/480 nm respectively over a period of 5 minutes in a microplate reader. The resulting linear increase in fluorescence emission (reflecting PKa proteolysis of PFR-AMC substrate) was fit to extract a proteolytic rate (fluorescent units over time), and this rate was subsequently plotted against compound inhibitor concentration. Resulting plots were fit to a standard 4-parameter IC50/IC90 equation to determine min/max values, IC50/90, and slope. All experimental steps were performed at room temperature.

Assay [1] addresses human activated kallikrein enzyme (Homo sapiens, UniProt P03952). Put plainly: Inhibition of human activated plasma kallikrein, fluorogenic PFR-AMC substrate, 500 pM enzyme format. The assay is classed as biochemical. The following applies: 300 μM PFR-AMC, 30 min preincubation, 10 min room temperature, pH 7.5. An outline of the steps: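 Using fluorogenic PFR-AMC at 300 μM, cleavage by 500 pM human activated kallikrein ran 10 min at room temperature, read at 460 nm emission (380 nm excitation). Enzyme and compounds were first preincubated 30 min in 20 mM Tris pH 7.5, 150 mM NaCl, 1 mM EDTA, 0.1% PEG-400, 0.1% Triton X-100.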

Where [2] appears, read: 500 pM activated kallikrein, read-out: Primary Dose Response Assay: Average EC50.

Like-named read-outs stand apart in the source and are kept apart here.

What is called IC90 is the point of the concentration-response curve where the effect stands at 90%. As a reminder, the EC50 is the midpoint of the concentration-response curve.

human activated kallikrein enzyme, sequence (P03952 391-638 limits assumed): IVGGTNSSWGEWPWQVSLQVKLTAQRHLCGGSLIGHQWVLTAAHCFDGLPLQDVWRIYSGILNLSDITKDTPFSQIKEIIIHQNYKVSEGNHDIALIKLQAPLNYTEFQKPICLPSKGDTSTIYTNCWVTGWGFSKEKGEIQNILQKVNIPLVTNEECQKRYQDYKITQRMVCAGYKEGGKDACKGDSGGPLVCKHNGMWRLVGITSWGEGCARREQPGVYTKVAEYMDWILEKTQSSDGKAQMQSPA
human activated kallikrein enzyme, sequence (P03952 20-390 partner limits assumed): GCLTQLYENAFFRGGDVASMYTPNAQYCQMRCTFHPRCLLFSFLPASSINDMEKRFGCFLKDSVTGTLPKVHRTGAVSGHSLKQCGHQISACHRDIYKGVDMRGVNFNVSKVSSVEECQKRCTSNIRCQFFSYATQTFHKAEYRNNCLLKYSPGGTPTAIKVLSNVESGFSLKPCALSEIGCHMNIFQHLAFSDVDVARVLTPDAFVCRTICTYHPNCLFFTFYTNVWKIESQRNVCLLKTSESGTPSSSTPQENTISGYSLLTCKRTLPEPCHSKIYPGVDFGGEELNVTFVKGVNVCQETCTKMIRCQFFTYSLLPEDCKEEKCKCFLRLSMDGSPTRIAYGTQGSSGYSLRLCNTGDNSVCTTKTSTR
T1 sequence (P03952 20-638): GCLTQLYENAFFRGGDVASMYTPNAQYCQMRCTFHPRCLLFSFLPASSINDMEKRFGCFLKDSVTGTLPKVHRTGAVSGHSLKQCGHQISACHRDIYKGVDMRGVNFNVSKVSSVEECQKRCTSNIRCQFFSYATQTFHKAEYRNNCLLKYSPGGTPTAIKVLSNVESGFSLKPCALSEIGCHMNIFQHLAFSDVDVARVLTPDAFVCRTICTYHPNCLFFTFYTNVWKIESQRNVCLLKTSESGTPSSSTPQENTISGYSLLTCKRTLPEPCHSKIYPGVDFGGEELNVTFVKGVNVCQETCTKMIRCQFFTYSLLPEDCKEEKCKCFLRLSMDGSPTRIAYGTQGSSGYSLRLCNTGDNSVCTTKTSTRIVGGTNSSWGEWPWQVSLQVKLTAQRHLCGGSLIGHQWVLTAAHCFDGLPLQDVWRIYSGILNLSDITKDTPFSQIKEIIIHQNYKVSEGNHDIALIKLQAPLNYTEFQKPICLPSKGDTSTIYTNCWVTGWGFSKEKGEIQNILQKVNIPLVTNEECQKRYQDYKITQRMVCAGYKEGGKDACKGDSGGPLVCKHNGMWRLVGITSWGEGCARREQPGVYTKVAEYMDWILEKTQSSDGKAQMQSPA

Consider `Cc1cc2c(N)nccc2c(C)c1CNc1cc(OC(C)c2ccc(Cn3cccn3)cc2)cnn1` (single isomer, unassigned) [Example 276, (R*)-6-(((5-(1-(4-((1H-pyrazol-1-yl)methyl)phenyl)ethoxy)pyridazin-3-yl)amino)methyl)-5,7-dimethylisoquinolin-1-amine], for which, at plasma kallikrein, the IC90 is at most 1000 nM. The EC50 in assay [1] (setting [2]) was below 1 nM.
For `Cc1cc2c(N)nccc2c(C)c1CNC(=O)c1cnn(Cc2ccc3ncc(Cl)cc3c2)c1` [Example 89, N-((1-amino-5,7-dimethylisoquinolin-6-yl)methyl)-1-((3-chloroquinolin-6-yl)methyl)-1H-pyrazole-4-carboxamide] the same measures were at most 1000 nM and below 1 nM.
`Cc1cc2c(N)nccc2c(C)c1CNc1cc(NCc2ccc(Cn3cc(Cl)cc(Cl)c3=O)cc2)ncn1` [Example I-463, 1-(4-(((6-(((1-amino-5,7-dimethylisoquinolin-6-yl)methyl)amino)pyrimidin-4-yl)amino)methyl)benzyl)-3,5-dichloropyridin-2(1H)-one]: the EC50 in assay [1] (setting [2]) was below 1 nM.
Same read-out and setting: the result for `Cc1cc2c(N)nccc2c(C)c1CNC(=O)c1cnn(Cc2ccc3nc(C)c(C)nc3c2)c1` [Example I-464, N-((1-amino-5,7-dimethylisoquinolin-6-yl)methyl)-1-((2,3-dimethylquinoxalin-6-yl)methyl)-1H-pyrazole-4-carboxamide] reads below 1 nM; that for `Cc1cc2c(N)nccc2c(C)c1CNc1cc(OCc2ccc(CC(=O)N(C)C)cc2)cnn1` [Example I-465, 2-(4-(((6-(((1-amino-5,7-dimethylisoquinolin-6-yl)methyl)amino)pyridazin-4-yl)oxy)methyl)phenyl)-N,N-dimethylacetamide], below 1 nM; that for `Cc1cc2c(N)nccc2c(C)c1CNc1cc(OCc2ccc(CC(=O)N(C)C)cc2)ncn1` [Example I-466, 2-(4-(((6-(((1-amino-5,7-dimethylisoquinolin-6-yl)methyl)amino)pyrimidin-4-yl)oxy)methyl)phenyl)-N,N-dimethylacetamide], 1 to 10 nM.
As for `Cc1cc2c(Nc3cc(OCc4ccc(CC(=O)N(C)C)cc4)ncn3)nccc2c(C)c1CN` [Example I-467, 2-(4-(((6-((6-(aminomethyl)-5,7-dimethylisoquinolin-1-yl)amino)pyrimidin-4-yl)oxy)methyl)phenyl)-N,N-dimethylacetamide], the EC50 in assay [1] (setting [2]) is above 1000 nM.
In the case of `Cc1cc2c(N)nccc2c(C)c1CNc1cc(OCc2ccc(Cn3cccn3)cc2)c2c(c1)C(=O)N(C)C2` [Example I-468, 4-((4-((1H-pyrazol-1-yl)methyl)benzyl)oxy)-6-(((1-amino-5,7-dimethylisoquinolin-6-yl)methyl)amino)-2-methylisoindolin-1-one], the concentration for a half-maximal effect (EC50) in assay [1] (setting [2]) lay in the range of 1 to 10 nM.
Regarding `Cc1cc2c(N)nccc2c(C)c1CNC(=O)c1cnn(C(F)(F)c2ccc(Br)cc2)c1` [Example I-469, N-((1-amino-5,7-dimethylisoquinolin-6-yl)methyl)-1-((4-bromophenyl)difluoromethyl)-1H-pyrazole-4-carboxamide], the EC50 in assay [1] (setting [2]) fell in the range of 100 to 1000 nM.
For the compound `CC(=O)Nc1nccc2c(C)c(CNc3cc(OCc4ccc(Cn5cccn5)cc4)cnn3)c(C)cc12` [Example I-470, N-(6-(((5-((4-((1H-pyrazol-1-yl)methyl)benzyl)oxy)pyridazin-3-yl)amino)methyl)-5,7-dimethylisoquinolin-1-yl)acetamide], the EC50 in assay [1] (setting [2]) fell in the range of 10 to 100 nM.
Consider `Cc1cc2c(N)nccc2c(C)c1CNC(c1cnn(Cc2ccc(Cn3ccccc3=O)cc2)c1)C(F)(F)F` (stereo not drawn) [Example I-471, 1-(4-((4-(1-(((1-amino-5,7-dimethylisoquinolin-6-yl)methyl)amino)-2,2,2-trifluoroethyl)-1H-pyrazol-1-yl)methyl)benzyl)pyridin-2(1H)-one], for which, in assay [1] (setting [2]), the EC50 was 10 to 100 nM.
With `Cc1cc2c(N)nccc2c(C)c1CNC(=O)c1cnn(C(F)(F)c2ccccc2)c1` [Example I-472, N-((1-amino-5,7-dimethylisoquinolin-6-yl)methyl)-1-(difluoro(phenyl)methyl)-1H-pyrazole-4-carboxamide], in assay [1] (setting [2]), the EC50 was in the range of 100 to 1000 nM.
Same read-out and setting: with `Cc1cc2c(N)nccc2c(C)c1CNC(=O)c1cnn(Cc2ccc(CC(=O)N3CCC3)c(Cl)c2)c1` [Example I-473, N-((1-amino-5,7-dimethylisoquinolin-6-yl)methyl)-1-(4-(2-(azetidin-1-yl)-2-oxoethyl)-3-chlorobenzyl)-1H-pyrazole-4-carboxamide] the figure was below 1 nM; with `Cc1cc2c(N)nccc2c(C)c1CNC(=O)c1cnn(Cc2ccc(CC(=O)N3CC4CC4C3)c(Cl)c2)c1` (stereo not drawn) [Example I-474, 1-(4-(2-(3-azabicyclo[3.1.0]hexan-3-yl)-2-oxoethyl)-3-chlorobenzyl)-N-((1-amino-5,7-dimethylisoquinolin-6-yl)methyl)-1H-pyrazole-4-carboxamide], below 1 nM.
Still for that read-out and setting: with `Cc1cc2c(N)nccc2c(C)c1CNC(=O)c1cnn(Cc2ccc(C3CCN(C)C3=O)cc2)c1` (stereo not drawn) [Example I-475, N-((1-amino-5,7-dimethylisoquinolin-6-yl)methyl)-1-(4-(1-methyl-2-oxopyrrolidin-3-yl)benzyl)-1H-pyrazole-4-carboxamide] the figure was 1 to 10 nM.
Still for that read-out and setting: the result for `Cc1cc2c(N)nccc2c(C)c1CNc1cncc(NCc2ccc(Cn3cccn3)cc2)n1` [Example I-476, N^2-(4-((1H-pyrazol-1-yl)methyl)benzyl)-N^6-((1-amino-5,7-dimethylisoquinolin-6-yl)methyl)pyrazine-2,6-diamine] reads 10 to 100 nM; that for `Cc1cc2c(N)nccc2c(C)c1CNC(=O)c1cn(Cc2ccc(CC(=O)N3CC4CC4C3)cc2)nc1F` (stereo not drawn) [Example I-477, 1-(4-(2-(3-azabicyclo[3.1.0]hexan-3-yl)-2-oxoethyl)benzyl)-N-((1-amino-5,7-dimethylisoquinolin-6-yl)methyl)-3-fluoro-1H-pyrazole-4-carboxamide], below 1 nM; that for `Cc1cc2c(N)nccc2c(C)c1CNc1nccc(OCc2ccc(Cn3ccccc3=O)cc2)n1` [Example I-478, 1-(4-(((2-(((1-amino-5,7-dimethylisoquinolin-6-yl)methyl)amino)pyrimidin-4-yl)oxy)methyl)benzyl)pyridin-2(1H)-one], 1 to 10 nM.
For `Cc1cc2c(N)nccc2c(C)c1CNC(=O)c1cn(Cc2ccc(CC(=O)N3CC4CC4C3)cc2)cc1F` (stereo not drawn) [Example I-479, 1-(4-(2-(3-azabicyclo[3.1.0]hexan-3-yl)-2-oxoethyl)benzyl)-N-((1-amino-5,7-dimethylisoquinolin-6-yl)methyl)-4-fluoro-1H-pyrrole-3-carboxamide], the EC50 in assay [1] (setting [2]) was below 1 nM.
Still for that read-out and setting: with `CCOC(=O)N(Cc1ccc(Cn2ccccc2=O)cc1)c1cc(NCc2c(C)cc3c(N)nccc3c2C)ncn1` [Example I-480, ethyl (6-(((1-amino-5,7-dimethylisoquinolin-6-yl)methyl)amino)pyrimidin-4-yl)(4-((2-oxopyridin-1(2H)-yl)methyl)benzyl)carbamate] the figure was 100 to 1000 nM; with `CCOC(=O)Nc1nccc2c(C)c(CNc3cc(N(Cc4ccc(Cn5ccccc5=O)cc4)C(=O)OCC)ncn3)c(C)cc12` [Example I-481, ethyl (6-(((1-((ethoxycarbonyl)amino)-5,7-dimethylisoquinolin-6-yl)methyl)amino)pyrimidin-4-yl)(4-((2-oxopyridin-1(2H)-yl)methyl)benzyl)carbamate], above 1000 nM.
With `C/C=C(/c1ccc(CNc2cc(NCc3c(C)cc4c(N)nccc4c3C)ncn2)cc1)n1cccn1` [Example I-483, (Z)—N^4-(4-(1-(1H-pyrazol-1-yl)prop-1-en-1-yl)benzyl)-N^6-((1-amino-5,7-dimethylisoquinolin-6-yl)methyl)pyrimidine-4,6-diamine], in assay [1] (setting [2]), the EC50 was below 1 nM.
On the same count and under the same terms, the result for `CCC(c1ccc(CNc2cc(NCc3c(C)cc4c(N)nccc4c3C)ncn2)cc1)n1cccn1` (stereo not drawn) [Example I-484, N^4-(4-(1-(1H-pyrazol-1-yl)propyl)benzyl)-N^6-((1-amino-5,7-dimethylisoquinolin-6-yl)methyl)pyrimidine-4,6-diamine] reads below 1 nM.
With `Cc1cc2c(N)nccc2c(C)c1CNC(=O)c1cn(Cc2cn3cc(C4CC4)ccc3n2)c2cccnc12` [Example I-485, N-((1-amino-5,7-dimethylisoquinolin-6-yl)methyl)-1-((6-cyclopropylimidazo[1,2-a]pyridin-2-yl)methyl)-1H-pyrrolo[3,2-b]pyridine-3-carboxamide], the EC50 in assay [1] (Primary Dose Response Assay: Average EC50, 500 pM activated kallikrein) fell in the range of 1 to 10 nM.
On to `Cc1cc2c(N)nccc2c(C)c1CNc1cc(OCc2nc3ccc(C4CC4)cn3n2)nc(C(=O)O)n1` [Example I-486, 4-(((1-amino-5,7-dimethylisoquinolin-6-yl)methyl)amino)-6-((6-cyclopropyl-[1,2,4]triazolo[1,5-a]pyridin-2-yl)methoxy)pyrimidine-2-carboxylic acid], for which the EC50 in assay [1] (setting [2]) fell in the range of 1 to 10 nM.

These data come from patent publication US20260374754A1, “N-((ISOQUINOLIN-6-YL)METHYL)-1H-PYRAZOLE-4-CARBOXAMIDE DERIVATIVES AS PLASMA KALLIKREIN INHIBITORS FOR THE TREATMENT OF HEREDITARY ANGIODEMA” (Takeda Pharmaceutical Company Limited, priority 2022, published 2026).
